Source: US8784910B2, “Antimicrobial compositions” (Lonza Inc., priority 2002, dated 2014)

Columns and labels:
Type in all cases: cell-based
[1] = test system: Candida albicans and Aspergillus niger; assay: Mixed fungal challenge of preserved anionic protein shampoo (Example 5); conditions: 1.0% in shampoo
Procedure: Each anionic shampoo sample in Table 4 below was tested as follows. A standard mixed […] solution was prepared according to the following procedure. 2 agar […] of Candida albicans and 4 agar […] of Aspergillus niger were separately incubated at about 25 EC for about 48 hours and 7 days, respectively. Each slant was washed with 3 mL of sterile 0.85% saline solution, collected and macerated in a tissue grinder. Sufficient amounts of 0.85% saline solution were added to each slant to obtain a visual count under a microscope with a Neubauer Hemocytometer of each innoculum of C. albicans and A. niger. Equal volumes of each standardized innoculum of C. albicans and A. niger were mixed together to form the standardized mixed fungal solution. 40 g of each shampoo sample was inoculated with 0.4 mL of the standardized mixed fungal solution and mixed. 1 g of the mixture was added to a sterile 20×150 mm screw cap test tube. 9 mL of sterile D/E neutralizer broth was added to the test tube and mixed to form a 10^-1 dilution. Serial dilutions were prepared through to a 10^-6 dilution with phosphate buffered water. The serial dilutions were plated onto Sabourand dextrose agar and incubated 5 days at about 25 EC. […] The anionic protein shampoo composition is described in Example 4. The shampoo samples were prepared by mixing the appropriate amounts of the preservatives and the anionic protein shampoo composition and heating the mixture to about 50 EC for about 15 minutes.

[2] = test system: S. aureus (ATCC #6538), P. aeruginosa (ATCC #9027), and E. coli (ATCC #8739); assay: Mixed bacterial challenge of preserved anionic protein shampoo (Examples 4 and 7); conditions: 1.0% (1%) by weight in shampoo; for S. aureus, P. aeruginosa, and E. coli Day 0: Day 0, Table 3; for S. aureus, P. aeruginosa, and E. coli Day 7: Day 7, Table 3; for S. aureus, P. aeruginosa, and E. coli Day 14: Day 14, Table 3
Procedure: (§1) Each anionic shampoo sample in Table 3 below was tested as follows. A standardized mixed bacterial solution was prepared according to the following procedure. 3 agar stabs of S. aureus (ATCC #6538), P. aeruginosa (ATCC #9027), and E. coli (ATCC #8739) were separately incubated at about 35 EC for about 24 hours. Each stab was then washed with 3 mL of sterile 0.85% saline solution. The washes of the 3 stabs were pooled together to form an organism mixture. The absorbance of the organism mixture at 530 nm was adjusted to about 1.00 by adding saline. The spectrometer was calibrated with a saline blank. A 5 mL aliquot of the organism mixture was mixed together to produce the standardized mixed bacterial solution. Then, 40 g of each shampoo sample was inoculated with 0.2 mL of the standardized mixed bacterial solution and mixed. 1 g of the mixture was added to a sterile 20×150 mm screw cap test tube.
9 mL of sterile D/E neutralizer broth was added to the test tube and mixed to form a 10^−1 dilution. Serial dilutions were prepared through to a 10^−6 dilution with phosphate buffered water. The serial dilutions were plated onto Tryptic Soy Agar and incubated for 2 days at about 35 EC. Bacteria counts were performed after 0, 7, and 14 days.
(§2) The anionic protein shampoo composition was comprised of 35% by weight of sodium lauryl ether sulfate; 25% by weight of triethanolamine lauryl sulfate; 3% by weight coconut diethanolamide (cocamide DEA); 1% by weight of hydrolyzed collagen, available as Polypro 5000™ from Hormel Foods of Austin, Minn.; and 36% by weight of deionized water.
The cinnamaldehyde and other preservative containing samples were prepared by mixing the appropriate amounts of the preservatives and the aforementioned anionic protein shampoo composition and heating the mixture to about 50 EC for about 15 minutes.
Synergism for the cinnamaldehyde/Glydant 2000™ solutions in Table 8 against S. aureus, P. aeruginosa, and E. coli was calculated by the method described in C. E. Kull et al., A Mixtures of Quaternary Ammonium Compounds and Long-chain Fatty Acids as Antifungal Agents@, Applied Microbiology, 9:538-541 (1961). The synergism value (QA/Qa+QB/Qb) in Table 7 was determined. […] Qa is the concentration of cinnamaldehyde alone (in percent by weight) required to yield 100% retardation of the bacteria. QB is the concentration of Glydant 2000™ (in percent by weight) in the mixture, which yielded 100% retardation of the bacteria. Qb is the concentration of Glydant 2000™ alone (in percent by weight) required to yield 100% retardation of the bacteria.
When the value of (QA/Qa+QB/Qb) is less than one, the mixture is synergistic. Values for (QA/Qa+QB/Qb) of 1 and greater than 1, represent an additive effect and an antagonistic effect, respectively.

[3] = test system: S. aureus (ATCC #6538), P. aeruginosa (ATCC #9027), and E. coli (ATCC #8739); assay: Mixed bacterial challenge of preserved anionic protein shampoo, pH 6.5 (Example 3); conditions: 0.45% w/w in shampoo; for bacteria count Day 0: pH 6.5, Day 0; for bacteria count Day 7: pH 6.5, Day 7; for bacteria count Day 14: pH 6.5, Day 14; for bacteria count Day 28: pH 6.5, Day 28
Procedure: as §1, with “FIGS. 1-3 were” for “Table 3 below was”
9 mL of sterile D/E neutralizer broth was added to the test tube and mixed to form a 10^−1 dilution. Serial dilutions were prepared through to a 10^−6 dilution with phosphate buffered water. The serial dilutions were plated onto Tryptic Soy Agar and incubated for 2 days at about 35 EC. […]
as §2
The antimicrobial composition containing samples were prepared by mixing the appropriate amounts of the antimicrobial ingredients and the aforementioned anionic protein shampoo composition and heating the mixture to about 50 EC for about 15 minutes.
The pH of the shampoo was adjusted to 6.5. […]

[4] = test system: Staphylococcus aureus (ATCC #6538); assay: Minimum Inhibitory Concentration (MIC), autodilutor, nutrient broth, 96 well plates (Example 8); conditions: 72 hours at 32 degree Celsius, approximately 10^6 cfu/g, visual turbidity
Procedure: The Minimum Inhibitory Concentration (MIC) of the preservative mixtures was tested. The MIC is the lowest concentration of an ingredient that will inhibit the growth of an organism. This study was conducted using the Hamilton Micro Lab AT Plus Autodilutor Liquid handling System. The programs for the auto-dilutor were based on Lonza's Standard Application Method SAPM#412-01-1. The Hamilton Autodilutor was used to dilute the starting concentrations of the preservative combination by 50% using nutrient broth in 96 well micro titer plates and also to inoculate the microorganism in the test samples. This preservatives tested were Isocil™ (a blend of methyl isothiazolinone and methyl-chloro-isothiazolinone), Benzocil™ (benzisothiazolinone) and Lonzagard™ (benzethonium chloride), all of which are available from Lonza Inc. of Fair Lawn, N.J., in various concentrations and combinations with cinnamaldehyde. Controls were also included in each test plate. […] Results were determined by checking for growth in the test samples versus the control wells on each plate (visual determination of turbidity in the wells). […] Synergism values for the Isocil™/cinnamaldehyde and Benzocil™/cinnamaldehyde combinations were calculated from the MIC values reported in Table 11 by the method described in Kull, supra, referred to above, and are set forth in Tables 12 and 13, below.

Row | Structure (SMILES) | S. aureus, P. aeruginosa, and E. coli Day 0 [2] | S. aureus, P. aeruginosa, and E. coli Day 7 [2] | S. aureus, P. aeruginosa, and E. coli Day 14 [2] | bacteria count Day 0 [3] | bacteria count Day 7 [3] | bacteria count Day 14 [3] | further results
1 | OCc1ccccc1 [Benzyl Alcohol, reference compound] | 3.0 × 10^7 cfu/g | 5.0 × 10^6 cfu/g | 5.3 × 10^6 cfu/g | – | – | – | Fungal Plate Count Day 0 ([1]; Day 0): 1.0 × 10^5 cfu/g; Fungal Plate Count Day 7 ([1]; Day 7): 6.0 × 10^3 cfu/g; Fungal Plate Count Day 14 ([1]; Day 14): 6.0 × 10^4 cfu/g
2 | C/C=C/C=C/C(=O)[O-].[K+] [potassium sorbate] | – | – | – | 1-3 × 10^6 cfu/g | 1 × 10^5 cfu/g | 6 × 10^4 cfu/g | –
3 | CC(C)=CCCC(C)=CC=O [Citral] | 3.0 × 10^7 cfu/g | 3.0 × 10^7 cfu/g | 3.0 × 10^7 cfu/g | – | – | – | –
4 | CC(C)=CCC/C(C)=C\CO [Nerol] | 3.0 × 10^7 cfu/g | 3.0 × 10^7 cfu/g | 3.0 × 10^7 cfu/g | – | – | – | –
5 | C=CCc1ccc(O)c(OC)c1 [Eugenol] | 3.0 × 10^7 cfu/g | 3.0 × 10^7 cfu/g | 3.0 × 10^7 cfu/g | – | – | – | –
6 | CC(C)=CCC/C(C)=C/CO [Gerniol] | 3.0 × 10^7 cfu/g | 3.0 × 10^7 cfu/g | 3.0 × 10^7 cfu/g | – | – | – | –
7 | O=c1[nH]sc2ccccc12 [Benzocil ™, benzisothiazolinone] | – | – | – | – | – | – | MIC for S. Aureus [4]: 9.375 ppm (active)
8 | O=C1O[C@H]([C@H](O)CO)C([O-])=C1O.[Na+] [sodium erythorbate] | – | – | – | 1-3 × 10^6 cfu/g | >3 × 10^6 cfu/g | >3 × 10^6 cfu/g | bacteria count Day 28 [3]: >3 × 10^6 cfu/g
9 | C=C(C)[C@H]1CC=C(C)CC1 [d-Limonene] | 3.0 × 10^7 cfu/g | 3.0 × 10^7 cfu/g | 3.0 × 10^7 cfu/g | – | – | – | –
10 | O=C([O-])c1ccccc1.[Na+] [sodium benzoate] | – | – | – | 1-3 × 10^6 cfu/g | 1 × 10^5 cfu/g | 7 × 10^5 cfu/g | bacteria count Day 28 [3]: <10 cfu/g
